The results in this text go back to article PMC5541372 (Biochemistry, 2017).

The experiment deals with T1, NOV2 (Novosphingobium aromaticivorans, UniProt Q2G4H8).
T1 sequence (Q2G4H8 1-497): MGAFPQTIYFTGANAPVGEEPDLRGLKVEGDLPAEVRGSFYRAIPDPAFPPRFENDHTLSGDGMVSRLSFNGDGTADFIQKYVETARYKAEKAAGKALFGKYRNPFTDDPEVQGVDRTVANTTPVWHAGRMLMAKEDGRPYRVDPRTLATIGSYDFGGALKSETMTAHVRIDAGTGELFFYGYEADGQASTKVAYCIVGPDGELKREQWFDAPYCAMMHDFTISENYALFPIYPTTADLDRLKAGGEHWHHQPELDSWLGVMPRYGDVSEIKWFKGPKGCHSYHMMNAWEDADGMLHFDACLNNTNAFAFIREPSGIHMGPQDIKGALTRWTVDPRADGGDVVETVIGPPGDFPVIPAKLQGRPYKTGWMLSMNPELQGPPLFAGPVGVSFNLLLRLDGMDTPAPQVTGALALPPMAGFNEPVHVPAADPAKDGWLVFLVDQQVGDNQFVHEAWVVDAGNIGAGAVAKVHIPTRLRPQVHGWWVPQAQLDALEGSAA
Put plainly: EPR of Fe-NO adduct and […] Mössbauer. Format: binding. Particulars: anaerobic, NO present for EPR.

For the compound `Oc1cc(O)cc(/C=C/c2ccc(O)c(O)c2)c1` [piceatannol], the “EPR of Fe-NO adduct and 57Fe Mössbauer” value (4-10 equiv substrate, pH 8.5 or 7.5) is reported as “nearly all active sites had substrate bound”.

Take `Oc1ccc(/C=C/c2cc(O)cc(O)c2)cc1` [resveratrol]: under “4 equiv substrate, pH 8.5”, the “EPR of Fe-NO adduct and 57Fe Mössbauer” value was “The resveratrol ES+NO of NOV2 showed EPR spectra (Figure 5D) similar to those with piceatannol”.
